Data reported in patent US7223773B2, “4-oxoquinolizine antibacterial agent having 2-pyridone skeleton as partial structure” (Salo Pharmaceutical Co., Ltd., priority 2001, dated 2007).
Values after ≈ are worked out from the molar mass of the structure shown.

How the values were obtained:
Format in all cases: cell-based
[1] = test system: Staphylococcus aureus IFO 13276; assay: in vitro antibacterial activity, agar plate dilution method (MIC); conditions: IFO13276, read-out: Antimicrobial spectrum MIC
Procedure: (§1) The in vitro antibacterial activities of the compounds provided by the present invention were tested by a standard method of Chemotherapy Society of Japan, i.e. an agar plate dilution method disclosed in CHEMOTHERAPY Vol. 29, pages 76–79, 1981, and the activities of them on anaerobic bacteria were tested by a method disclosed in CHEMOTHERAPY Vol. 27, 559–590, 1979. The results were shown in terms of the minimum inhibition concentration (MIC, μg/ml) for the growth of the bacteria.

[2] = test system: Staphylococcus epidermidis IFO 12993; assay: as above; conditions: IFO12993, read-out: Antimicrobial spectrum MIC
Procedure: as §1

[3] = test system: Staphylococcus aureus Clin-211(MRSA); assay: as above; conditions: read-out: Antimicrobial spectrum MIC
Procedure: as §1

[4] = test system: Enterococcus faecalis RIMD 3116001; assay: as above; conditions: RIMD3116001, read-out: Antimicrobial spectrum MIC
Procedure: as §1

[5] = test system: Klebsiella pneumoniae IID 865; assay: as above; conditions: IID865, read-out: Antimicrobial spectrum MIC
Procedure: as §1

[6] = test system: Escherichia coli IFO 12734; assay: as above; conditions: IFO12734, read-out: Antimicrobial spectrum MIC
Procedure: as §1

[7] = test system: Micrococcus luteus KI 3122; assay: as above; conditions: KI3122, read-out: Antimicrobial spectrum MIC
Procedure: as §1

[8] = test system: Staphylococcus aureus IID 803(Smith); assay: as above; conditions: IID803, read-out: Antimicrobial spectrum MIC
Procedure: as §1

[9] = test system: Pseudomonas aeruginosa CSJ 1853; assay: as above; conditions: CSJ1853, read-out: Antimicrobial spectrum MIC
Procedure: as §1

[10] = test system: Branhamella catarrhalis IID 5233; assay: as above; conditions: Moraxella catarrhalis, IID5233, read-out: Antimicrobial spectrum MIC
Procedure: as §1

[11] = test system: Haemophilus influenzae IID 984; assay: as above; conditions: IID984, read-out: Antimicrobial spectrum MIC
Procedure: as §1

[12] = test system: Enterococcus faecalis CSJ 1212; assay: as above; conditions: CSJ1212, read-out: Antimicrobial spectrum MIC
Procedure: as §1

[13] = test system: Bacillus subtilis JCM 2499; assay: as above; conditions: JCM2499, read-out: Antimicrobial spectrum MIC
Procedure: as §1

[14] = test system: Staphylococcus aureus JCM 2874; assay: as above; conditions: JCM2874, read-out: Antimicrobial spectrum MIC
Procedure: as §1

[15] = test system: Streptococcus pneumoniae IID 553; assay: as above; conditions: IID553, read-out: Antimicrobial spectrum MIC
Procedure: as §1

[16] = test system: Bacteroides thetaiotaomicron ATCC 29741; assay: in vitro antibacterial activity on anaerobic bacteria (MIC); conditions: ATCC29741; Bacteroides thetaiotaomicron ATCC 29741, anaerobic; read-out: Antimicrobial spectrum MIC
Procedure: as §1

[17] = test system: Propionibacterium acnes JCM 6425; assay: as above; conditions: Cutibacterium acnes, JCM6425; Propionibacterium acnes JCM 6425, anaerobic; read-out: Antimicrobial spectrum MIC
Procedure: as §1

[18] = test system: Bacteroides fragilis GAI 0675; assay: as above; conditions: GAI0675; Bacteroides fragilis GAI 0675, anaerobic; read-out: Antimicrobial spectrum MIC
Procedure: as §1

Compound	MIC [1] [µg/mL]	MIC [2] [µg/mL]	MIC [3] [µg/mL]	MIC [4] [µg/mL]	MIC [5] [µg/mL]	MIC [6] [µg/mL]	MIC [7] [µg/mL]	MIC [8] [µg/mL]	MIC [9] [µg/mL]	MIC [10] [µg/mL]	MIC [11] [µg/mL]	MIC [12] [µg/mL]	MIC [13] [µg/mL]	MIC [14] [µg/mL]	MIC [15] [µg/mL]	MIC [16] [µg/mL]	MIC [17] [µg/mL]	MIC [18] [µg/mL]
Cc1c(-c2ccc(CN)cc2)ccn2c(=O)c(C(=O)O)cc(C3CC3)c12 [Example 24, 8-(4-aminomethylphenyl)-1-cyclopropyl-9-methyl-4-oxo-4H-quinolizine-3-carboxylic acid]	0.031 (≈ 0.089 µM)	0.063 (≈ 0.181 µM)	0.5 (≈ 1.44 µM)	0.25 (≈ 0.718 µM)	0.008 (≈ 0.023 µM)	0.063 (≈ 0.181 µM)	0.5 (≈ 1.44 µM)	0.031 (≈ 0.089 µM)	0.5 (≈ 1.44 µM)	0.063 (≈ 0.181 µM)	0.016 (≈ 0.0459 µM)	0.25 (≈ 0.718 µM)	0.016 (≈ 0.0459 µM)	0.031 (≈ 0.089 µM)	0.125 (≈ 0.359 µM)	0.5 (≈ 1.44 µM)	0.125 (≈ 0.359 µM)	0.25 (≈ 0.718 µM)
Cc1c(-c2cccc(N)c2)ccn2c(=O)c(C(=O)O)cc(C3CC3)c12 [Example 26, 8-(3-aminophenyl)-1-cyclopropyl-9-methyl-4-oxo-4H-quinolizine-3-carboxylic acid]	0.008 (≈ 0.0239 µM)	0.016 (≈ 0.0479 µM)	0.125 (≈ 0.374 µM)	0.25 (≈ 0.748 µM)	0.008 (≈ 0.0239 µM)	0.125 (≈ 0.374 µM)	0.125 (≈ 0.374 µM)	0.008 (≈ 0.0239 µM)	0.25 (≈ 0.748 µM)	0.016 (≈ 0.0479 µM)	0.016 (≈ 0.0479 µM)	0.125 (≈ 0.374 µM)	≤ 0.004	0.008 (≈ 0.0239 µM)	0.25 (≈ 0.748 µM)	0.25 (≈ 0.748 µM)	0.063 (≈ 0.188 µM)	0.125 (≈ 0.374 µM)
Cc1c(-c2ccc(N)cc2)ccn2c(=O)c(C(=O)O)cc(C3CC3)c12 [Example 27, 8-(4-Aminophenyl)-1-cyclopropyl-9-methyl-4-oxo-4H-quinolizine-3-carboxylic acid]	≤ 0.004	0.008 (≈ 0.0239 µM)	0.031 (≈ 0.0927 µM)	0.063 (≈ 0.188 µM)	≤ 0.004	0.063 (≈ 0.188 µM)	0.063 (≈ 0.188 µM)	≤ 0.004	0.25 (≈ 0.748 µM)	≤ 0.004	0.008 (≈ 0.0239 µM)	0.031 (≈ 0.0927 µM)	≤ 0.004	≤ 0.004	0.125 (≈ 0.374 µM)	0.125 (≈ 0.374 µM)	0.031 (≈ 0.0927 µM)	0.031 (≈ 0.0927 µM)
CC(=O)c1ccc(-c2ccn3c(=O)c(C(=O)O)cc(C4CC4)c3c2C)cc1 [Example 28, 8-(4-Acetylphenyl)-1-cyclopropyl-9-methyl-4-oxo-4H-quinolizine-3-carboxylic acid]	0.008 (≈ 0.0221 µM)	0.031 (≈ 0.0858 µM)	0.125 (≈ 0.346 µM)	0.25 (≈ 0.692 µM)	0.031 (≈ 0.0858 µM)	0.25 (≈ 0.692 µM)	0.25 (≈ 0.692 µM)	0.008 (≈ 0.0221 µM)	2 (≈ 5.53 µM)	0.031 (≈ 0.0858 µM)	0.25 (≈ 0.692 µM)	0.125 (≈ 0.346 µM)	≤ 0.004	0.008 (≈ 0.0221 µM)	0.25 (≈ 0.692 µM)	0.25 (≈ 0.692 µM)		0.125 (≈ 0.346 µM)
Cc1ccc(-c2ccn3c(=O)c(C(=O)O)cc(C4CC4)c3c2C)cc1 [Example 31, 1-Cyclopropyl-9-methyl-4-oxo-8-p-tolyl-4H-quinolizine-3-carboxylic acid]	0.008 (≈ 0.024 µM)	0.016 (≈ 0.048 µM)	0.125 (≈ 0.375 µM)	0.5 (≈ 1.5 µM)	0.031 (≈ 0.093 µM)	0.125 (≈ 0.375 µM)	0.125 (≈ 0.375 µM)	0.008 (≈ 0.024 µM)	0.5 (≈ 1.5 µM)	0.031 (≈ 0.093 µM)	0.125 (≈ 0.375 µM)	0.25 (≈ 0.75 µM)	≤ 0.004	0.008 (≈ 0.024 µM)	0.5 (≈ 1.5 µM)	1 (≈ 3 µM)	0.25 (≈ 0.75 µM)	0.25 (≈ 0.75 µM)
COc1ccc(-c2ccn3c(=O)c(C(=O)O)cc(C4CC4)c3c2C)cn1 [Example 32, 1-Cyclopropyl-8-(6-methoxypyridin-3-yl)-9-methyl-4-oxo-4H-quinolizine-3-carboxylic acid]	0.008 (≈ 0.0228 µM)	0.016 (≈ 0.0457 µM)	0.125 (≈ 0.357 µM)	0.25 (≈ 0.714 µM)	0.016 (≈ 0.0457 µM)	0.25 (≈ 0.714 µM)	0.25 (≈ 0.714 µM)	0.008 (≈ 0.0228 µM)	1 (≈ 2.85 µM)	0.031 (≈ 0.0885 µM)	0.063 (≈ 0.18 µM)	0.125 (≈ 0.357 µM)	≤ 0.004	0.016 (≈ 0.0457 µM)	0.5 (≈ 1.43 µM)	0.25 (≈ 0.714 µM)	0.008 (≈ 0.0228 µM)	0.063 (≈ 0.18 µM)
Cc1c(-c2ccc(C#N)cc2)ccn2c(=O)c(C(=O)O)cc(C3CC3)c12 [Example 36, 8-(4-Cyanophenyl)-1-cyclopropyl-9-methyl-4-oxo-4H-quinolizine-3-carboxylic acid]	0.016 (≈ 0.0465 µM)	0.016 (≈ 0.0465 µM)	0.125 (≈ 0.363 µM)	0.25 (≈ 0.726 µM)	0.031 (≈ 0.09 µM)	0.25 (≈ 0.726 µM)	0.125 (≈ 0.363 µM)	0.008 (≈ 0.0232 µM)	0.5 (≈ 1.45 µM)	0.031 (≈ 0.09 µM)	0.063 (≈ 0.183 µM)	0.25 (≈ 0.726 µM)	≤ 0.004	0.016 (≈ 0.0465 µM)	0.5 (≈ 1.45 µM)	0.5 (≈ 1.45 µM)	0.063 (≈ 0.183 µM)	0.125 (≈ 0.363 µM)
CC(=NO)c1ccc(-c2ccn3c(=O)c(C(=O)O)cc(C4CC4)c3c2C)cc1 [Example 38, 1-Cyclopropyl-8-[4-(1-hydroxyiminoethyl)phenyl]-9-methyl-4-oxo-4H-quinolizine-3-carboxylic acid]	0.008 (≈ 0.0213 µM)	0.016 (≈ 0.0425 µM)	0.063 (≈ 0.167 µM)	0.125 (≈ 0.332 µM)	0.031 (≈ 0.0824 µM)	0.125 (≈ 0.332 µM)	0.125 (≈ 0.332 µM)	≤ 0.004	2 (≈ 5.31 µM)	0.016 (≈ 0.0425 µM)	0.125 (≈ 0.332 µM)	0.125 (≈ 0.332 µM)	≤ 0.004	≤ 0.004	0.125 (≈ 0.332 µM)	0.25 (≈ 0.664 µM)		0.063 (≈ 0.167 µM)
Cc1c(-c2ccc(NCCO)cc2)ccn2c(=O)c(C(=O)O)cc(C3CC3)c12 [Example 46, 1-cyclopropyl-8-[4-(2-hydroxyethylamino)phenyl]-9-methyl-4-oxo-4H-quinolizine-3-carboxylic acid]	≤ 0.004	0.008 (≈ 0.0211 µM)	0.031 (≈ 0.0819 µM)	0.063 (≈ 0.166 µM)	0.063 (≈ 0.166 µM)	0.125 (≈ 0.33 µM)	0.125 (≈ 0.33 µM)	≤ 0.004	1 (≈ 2.64 µM)	0.016 (≈ 0.0423 µM)	0.031 (≈ 0.0819 µM)	0.063 (≈ 0.166 µM)	≤ 0.004	≤ 0.004	0.125 (≈ 0.33 µM)	0.25 (≈ 0.661 µM)	0.016 (≈ 0.0423 µM)	0.125 (≈ 0.33 µM)
Cc1c(-c2ccc(N)c(F)c2)ccn2c(=O)c(C(=O)O)cc(C3CC3)c12 [Example 97, 8-(4-amino-3-fluorophenyl)-1-cyclopropyl-9-methyl-4-oxo-4H-quinolizine-3-carboxylic acid]	0.016 (≈ 0.0454 µM)	0.016 (≈ 0.0454 µM)	0.063 (≈ 0.179 µM)	0.25 (≈ 0.709 µM)	0.031 (≈ 0.088 µM)	0.063 (≈ 0.179 µM)	0.125 (≈ 0.355 µM)	≤ 0.004	0.25 (≈ 0.709 µM)	0.031 (≈ 0.088 µM)	0.031 (≈ 0.088 µM)	0.125 (≈ 0.355 µM)		≤ 0.004	0.25 (≈ 0.709 µM)	0.125 (≈ 0.355 µM)	0.031 (≈ 0.088 µM)	0.031 (≈ 0.088 µM)
CCOC(=O)c1cc(C2CC2)c2c(C)c(-c3cc(F)c(CN)s3)ccn2c1=O [Example 111, Ethyl 8-(5-aminomethyl-4-fluorothiophen-2-yl)-1-cyclopropyl-9-methyl-4-oxo-4H-quinolizine-3-carboxylate]	0.016 (≈ 0.04 µM)	0.031 (≈ 0.0774 µM)	0.25 (≈ 0.624 µM)	0.125 (≈ 0.312 µM)	0.008 (≈ 0.02 µM)	0.063 (≈ 0.157 µM)	0.25 (≈ 0.624 µM)	0.016 (≈ 0.04 µM)	0.25 (≈ 0.624 µM)	0.031 (≈ 0.0774 µM)	0.008 (≈ 0.02 µM)	0.063 (≈ 0.157 µM)		0.031 (≈ 0.0774 µM)	0.125 (≈ 0.312 µM)	0.5 (≈ 1.25 µM)	0.125 (≈ 0.312 µM)	0.25 (≈ 0.624 µM)
Cc1c(-c2ccc(CN)o2)ccn2c(=O)c(C(=O)O)cc(C3CC3)c12 [Example 113, 8-(5-Aminomethylfuran-2-yl)-1-cyclopropyl-9-methyl-4-oxo-4H-quinolizine-3-carboxylic acid]	0.031 (≈ 0.0916 µM)			0.5 (≈ 1.48 µM)	0.008 (≈ 0.0236 µM)	0.063 (≈ 0.186 µM)	0.25 (≈ 0.739 µM)		1 (≈ 2.96 µM)	0.125 (≈ 0.369 µM)	0.031 (≈ 0.0916 µM)	0.5 (≈ 1.48 µM)	0.016 (≈ 0.0473 µM)	0.063 (≈ 0.186 µM)	0.5 (≈ 1.48 µM)	2 (≈ 5.91 µM)		1 (≈ 2.96 µM)
